Test results as given in patent US4942171A, “The compound, 6-(1-imidazolyl methyl)-5,6,7,8-tetrahydronaphthalene-2-carboxylic acid and salts thereof having antidiabetic activity” (Daiichi Seiyaku Co., Ltd., priority 1987, dated 1990).
Where a name gives a salt, the structure may show the parent alone.

Key:
[1] = tested on: spontaneous hypertensive male rats (SHR); test: Efficacy in Diabetic Model: Determination of Blood Sugar Level, non-diabetic SHR; assay type: in vivo, rat; settings: for Blood Sugar Level: SHR (n = 8), mean ± S.E.
Procedure: (§1) 5-Week old spontaneous hypertensive male rats (SHR), available from Nippon Charles River, were used. Streptozotocin (STZ) was dissolved in a 0.1M citrate buffer solution (pH 4.5) and injected into the tail vein of the rats at a dose level of 50 mg/kg to prepare diabetic rats. For control, rats received 1 ml/kg of the citrate buffer solution alone through administration to the tail vein. After one week from the STZ administration, blood was taken from the tail vein of the unanesthetized rats, and the blood sugar level was determined. Those rats having a blood sugar level of 300 mg/dl or higher were used as diabetic rats.
(§2) 6-(1-Imidazolylmethyl)-5,6,7,8-tetrahydronaphthalene- 2-carboxylic acid hydrochloride hemihydrate (hereinafter referred to as Compound A) was dissolved in distilled water and administered orally to the test animals at a dose level of 1 mg/kg/day or 10 mg/kg/day for 5 consecutive months from one week after the administration of STZ or a citrate buffer solution.
(§3) Just before the administration of Compound A, blood was sampled from the tail vein of the rats without any restriction of diet to determine the blood sugar level using a commercial glucose assay kit (Trade name: New Blood Sugar Test, produced by Boehringer Mannheim Co., Ltd., West Germany). The results are shown in Table 1, expressed as mean ±S.E.

[2] = tested on: streptozotocin-induced diabetic spontaneous hypertensive rats; test: Efficacy in Diabetic Model: Determination of Blood Sugar Level, STZ-induced diabetic SHR; assay type: in vivo, rat; settings: for Blood Sugar Level: Diabetic SHR (n = 7), mean ± S.E.
Procedure: as §1, §2, §3

diabetic SHR = test: Determination of Glucose Tolerance in diabetic SHR; assay type: in vivo, rat; settings: for Blood Sugar Level (Effect on Glucose Tolerance): 3 months
Procedure: as §1, §2
After 3 months from the start of the administration of Compound A, the rats were fasted for 18 hours. Glucose was administered orally to the rats at a dose level of 2 g/kg. Blood was sampled from the tail vein of the rats just before the administration of glucose and at 1 hour and 2 hours after the administration to determine the blood sugar lever using the above method. The result was shown in Table 2, expressed as mean +S.E.

Acute Toxicity in Rats = settings: rat, in vivo
Text: Acute toxicities of Compound A in rats through oral administration or intravenous injection were as follows.

[3] = 1 mg/kg/day p.o., 0 weeks (before administration)
[4] = 10 mg/kg/day p.o., 0 weeks (before administration)

## O=C(O)c1ccc2c(c1)CCC(Cn1ccnc1)C2 (centres unmarked) [Compound A, 6-(1-Imidazolylmethyl)-5,6,7,8-tetrahydronaphthalene-2-carboxylic acid hydrochloride hemihydrate]
[1]; [3]
  Blood Sugar Level: 100.7 mg/dL
[1]; 1 mg/kg/day p.o., 2 weeks
  Blood Sugar Level: 95.4 mg/dL
[1]; 1 mg/kg/day p.o., 8 weeks
  Blood Sugar Level: 94.5 mg/dL
[1]; [4]
  Blood Sugar Level: 108.0 mg/dL
[1]; 10 mg/kg/day p.o., 2 weeks
  Blood Sugar Level: 90.9 mg/dL
[1]; 10 mg/kg/day p.o., 8 weeks
  Blood Sugar Level: 93.2 mg/dL
[1]; non-diabetic SHR
  effect on blood sugar level in SHR: not affected
[2]; 8 weeks after the start of administration
  effect on blood sugar level of diabetic SHR: significantly lowered the blood sugar level
[2]; [3]
  Blood Sugar Level: 374.6 mg/dL
[2]; 1 mg/kg/day p.o., 2 weeks, control 481.5
  Blood Sugar Level: 406.3 mg/dL
[2]; 1 mg/kg/day p.o., 8 weeks, control 544.2
  Blood Sugar Level: 445.0 mg/dL
[2]; [4]
  Blood Sugar Level: 361.4 mg/dL
[2]; 10 mg/kg/day p.o., 2 weeks, control 481.5, *P < 0.05 vs control
  Blood Sugar Level: 365.2 mg/dL
[2]; 10 mg/kg/day p.o., 8 weeks, control 544.2, **P < 0.01 vs control
  Blood Sugar Level: 277.3 mg/dL
[2]; from 2 weeks after the start of administration
  effect on high blood sugar level of diabetic SHR: tendency to lower the high blood sugar level
Diabetic SHR; 1 mg/kg/day p.o. (n = 7), 1 hour after glucose load (2 g/kg p.o.), control 329.5
  Blood Sugar Level (Effect on Glucose Tolerance): 255.4 mg/dL
Diabetic SHR; 1 mg/kg/day p.o. (n = 7), 2 hours after glucose load (2 g/kg p.o.), control 280.8
  Blood Sugar Level (Effect on Glucose Tolerance): 167.3 mg/dL
Diabetic SHR; 1 mg/kg/day p.o. (n = 7), just before the glucose load (2 g/kg p.o.), control 178.5
  Blood Sugar Level (Effect on Glucose Tolerance): 136.8 mg/dL
Diabetic SHR; 10 mg/kg/day p.o. (n = 8), 1 hour after glucose load (2 g/kg p.o.), control 329.5, *P < 0.05 vs control
  Blood Sugar Level (Effect on Glucose Tolerance): 202.4 mg/dL
Diabetic SHR; 10 mg/kg/day p.o. (n = 8), 2 hours after glucose load (2 g/kg p.o.), control 280.8
  Blood Sugar Level (Effect on Glucose Tolerance): 137.1 mg/dL
Diabetic SHR; 10 mg/kg/day p.o. (n = 8), just before the glucose load (2 g/kg p.o.), control 178.5
  Blood Sugar Level (Effect on Glucose Tolerance): 105.1 mg/dL
Diabetic SHR; rat, in vivo
  glucose tolerance in the diabetic SHR: improved the glucose tolerance
Acute Toxicity in Rats; iv, female rats
  LD50: 783 mg/kg
Acute Toxicity in Rats; iv, male rats
  LD50: 807 mg/kg
Acute Toxicity in Rats; po, female rats
  LD50: 1990 mg/kg
Acute Toxicity in Rats; po, male rats
  LD50: 2440 mg/kg
